Results published in patent US10563272B2, “Compositions comprising Metarhizium fungi and use thereof as a pesticide” (Cotton Research and Development Corporation, priority 2015, dated 2020).

What was measured:
predatory beetles = test: Bollgard II cotton, Auscott-Togo 2012-13, Field 77 (Experiment 1): predatory beetles; type: in vivo, Coleoptera (Coccinellidae, Melyridae); conditions: 62.5 mL/ha
Protocol: (§1) Two separate trials (Experiment 1 in Field 77; Experiment 2 in Field 63) were conducted in Bollgard II cotton crops on a commercial cotton farm at Auscott-Togo near Narrabri, New South Wales from 11 Feb. to 5 Mar. 2013 (Field 77) and 19 Feb. to 6 Mar. 2013 (Field 63). The cotton used for each of the trials was at the late squaring to pod setting and maturation stages which was fairly attractive to green mirids.
(§2) In both trials, the efficacy of the following treatments against green mirids and predatory insects was evaluated: • 1. 250 mL/ha DAT 511 spore in oil (1×10^7 spores/ml); • 2. 500 mL/ha DAT 511 spore in oil (1×10^7 spores/ml); • 3. 1 L/ha DAT 511 spore in oil (1×10^7 spores/ml); • 4. 62.5 mL/ha of fipronil; and • 5. Unsprayed (negative control).
(§3) The treatment plots were arranged in a randomized complete block design with six replicates per treatment. Each replicated plot measured 40 m wide (40 rows) and 90 m long.
(§4) Foliar application of each treatment was made on 28 Feb. (for both green mirids and beneficial insects) and 13 Mar. 2012 (for beneficial insects alone) using a ground spray rig fitted with flat fan nozzles to achieve a droplet size of 200 μm. The treatment was applied during the mornings when temperatures were between 20° C. and 28° C. The timing of treatment was based on the IPM Guidelines and recommendations by CottonLogic to use an economic threshold of 0.5 green mirids per metre (Deutscher and Wilson 1999; Khan et al. 2004).
(§5) Pre-treatment counts of green mirid adults and nymphs, predatory beetles, predatory bugs, predatory lacewings and spiders were made by visual inspection of whole cotton plants. Both adults and nymphs of beneficial insects were counted. Plants were assessed in randomly selected one-metre lengths of row of each replicate (i.e. 6 m per treatment). Post-treatment counts were made 3, 7, 14 and 21 days after treatment. Data are expressed as numbers of green mirid adults and nymphs counted per metre for each treatment.

spiders [1] = test: Bollgard II cotton, Auscott-Togo 2012-13, Field 63 (Experiment 2): spiders; type: in vivo, Lycosa spp., Oxyopes spp., Salticidae spp., Araneus spp.; conditions: 62.5 mL/ha
Protocol: as §1, §2, §3, §4, §5

predatory bugs [2] = test: Bollgard II cotton, Auscott-Togo 2012-13, Field 77 (Experiment 1): predatory bugs; type: in vivo, Hemiptera (Nabidae, Lygaeidae, Pentatomidae); conditions: 62.5 mL/ha
Protocol: as §1, §2, §3, §4, §5

predatory bugs [3] = test: Foliar spray trial on Bollgard II cotton, Norwood 2010-11 (Example 7): predatory bugs; type: in vivo, Hemiptera (Nabidae, Lygaeidae, Pentatomidae); conditions: fipronil 62.5 mL/ha; for number of predatory bugs per meter: 1st spray, BC 667/DAT 511 0.50 L/ha; for number of predatory bugs per metre: 2nd spray, BC 667/DAT 511 0.5 L/ha
Protocol: (§6) The trial was conducted on commercial Bollgard II® cotton crops at Norwood near Moree, NSW from 5 Dec. 2010 to 19 Feb. 2011. The cotton was at the early squaring stage, when it was attractive to green mirids (Khan et al. 2004).
(§7) The study evaluated the efficacy of the following treatments against green mirids, green vegetable bugs and predatory insects: • 1. 500 mL/ha BC 667 spore in oil (1×10^7 spores/ml); • 2. 500 mL/ha DAT 511 spore in oil (1×10^7 spores/ml); • 3. 62.5 mL/ha Fipronil (conventional insecticide); and • 4. Unsprayed (control).
(§8) The treatment plots were arranged in a randomized complete block design with four replicates per treatment. Each replicated plot measured 0.5 ha. Foliar application of each treatment was made on 18 Jan. 2011 using a ground spray rig fitted with flat fan nozzles to achieve a droplet size of 80 250 μm. The treatment was applied in the mornings when temperature was between 20° C. and 28° C. The timing of treatment was based on an economic threshold of 0.5 green mirids per metre, the IPM guideline and recommendation by CottonLogic.
Pre-treatment counts of green mirid adults and nymphs, predatory beetles, predatory bugs, predatory lacewings and spiders were made by visual inspection of whole cotton plants. Both adults and nymphs of the beneficial insects were counted. Plants were assessed in randomly selected one-metre lengths of row of each treatment replicate (i.e. four metres per treatment). In all, two spray applications of each treatment were made. The first spray was made on 18 Jan. 2011. Post-treatment counts of the first spray application were taken 3, 7 and 14 days after treatment (DAT) (first spray). A second spray application was done on 1 Feb. 2011 when green mirid adults plus nymphs reached the threshold of 0.5 per metre. Post-treatment counts of the second spray application were taken 3, 7, 14, 21 and 28 DAT. Data are expressed as numbers of individuals of that species counted per metre for each treatment.

spiders [4] = test: Bollgard II cotton, Auscott-Togo 2012-13, Field 77 (Experiment 1): spiders; type: in vivo, Lycosa spp., Oxyopes spp., Salticidae spp., Araneus spp.; conditions: 62.5 mL/ha
Protocol: as §1, §2, §3, §4, §5

[5] = tested on: Creontiades dilutus (green mirids); test: Foliar spray trial on Bollgard II cotton, Norwood 2010-11 (Example 7): green mirids; type: in vivo; conditions: first spray, three DAT; BC 667/DAT 511 500 mL/ha, fipronil 62.5 mL/ha
Protocol: as §6, §7
as §8, with “The timing of treatment was based on an economic threshold of 0.5 green mirids per metre, the IPM guideline and recommendation by CottonLogic.” left out
Pre-treatment counts of green mirid adults and nymphs, predatory beetles, predatory bugs, predatory lacewings and spiders were made by visual inspection of whole cotton plants. Both adults and nymphs of the beneficial insects were counted. Plants were assessed in randomly selected one-metre lengths of row of each treatment replicate (i.e. four metres per treatment). […] Data are expressed as numbers of individuals of that species counted per metre for each treatment.

N#Cc1nn(-c2c(Cl)cc(C(F)(F)F)cc2Cl)c(N)c1[S+]([O-])C(F)(F)F (stereo not shown) [fipronil]
No. predatory beetles per meter (predatory beetles; 3 DAT): 1.33 ± 0.33 a per meter | No. predatory beetles per meter (predatory beetles; 7 DAT): 1.33 ± 0.33 a per meter | No. predatory beetles per meter (predatory beetles; 14 DAT): 1.00 ± 0.58 a per meter | No. predatory beetles per meter (predatory beetles; 21 DAT): 1.33 ± 0.33 b per meter | No. predatory beetles per meter (predatory beetles; pre-spray counts): 3.68 ± 0.33 a per meter | No. spiders per meter (spiders [1]; 3 DAT): 7.33 ± 1.45 a per meter | No. spiders per meter (spiders [1]; 7 DAT): 4.33 ± 0.67a per meter | No. spiders per meter (spiders [1]; 14 DAT): 1.33 ± 0.33a per meter | No. spiders per meter (spiders [1]; 21 DAT): 3.67 ± 0.33 a per meter | No. spiders per meter (spiders [1]; pre-spray counts): 11.67 ± 1.61 a per meter | number of predatory bugs per meter (predatory bugs [2]; 3 DAT): 0.33 ± 0.00 a per meter | number of predatory bugs per meter (predatory bugs [2]; 7 DAT): 0.00 ± 0.00 a per meter | number of predatory bugs per meter (predatory bugs [2]; 14 DAT): 0.00 ± 0.00 a per meter | number of predatory bugs per meter (predatory bugs [2]; 21 DAT): 0.67 ± 0.33 a per meter | number of predatory bugs per meter (predatory bugs [2]; pre-spray counts): 0.33 ± 0.33 a per meter | number of predatory bugs per meter (predatory bugs [3]; 3 DAT): 0.33 ± 0.33 a per meter | number of predatory bugs per meter (predatory bugs [3]; 7 DAT): 0.67 ± 0.33 a per meter | number of predatory bugs per meter (predatory bugs [3]; 14 DAT): 1.33 ± 0.33 a per meter | number of predatory bugs per meter (predatory bugs [3]; pre-spray counts 18 Jan. 2011): 0.67 ± 0.33 a per meter | number of predatory bugs per metre (predatory bugs [3]; 3 DAT): 0.33 ± 0.33a per metre | number of predatory bugs per metre (predatory bugs [3]; 7 DAT): 0.33 ± 0.33a per metre | number of predatory bugs per metre (predatory bugs [3]; 14 DAT): 0.67 ± 0.33a per metre | number of predatory bugs per metre (predatory bugs [3]; 21 DAT): 1.00 ± 0.58a per metre | number of predatory bugs per metre (predatory bugs [3]; 28 DAT): 0.67 ± 0.33a per metre | number of predatory bugs per metre (predatory bugs [3]; pre-spray counts 1 Feb. 2011): 1.33 ± 0.33a per metre | No. spiders per meter (spiders [4]; 3 DAT): 5.00 ± 1.73 a per meter | No. spiders per meter (spiders [4]; 7 DAT): 5.33 ± 1.86 a per meter | No. spiders per meter (spiders [4]; 14 DAT): 9.33 ± 0.67a per meter | No. spiders per meter (spiders [4]; 21 DAT): 8.67 ± 0.88 a per meter | No. spiders per meter (spiders [4]; pre-spray counts): 11.67 ± 1.67a per meter | green mirid mortality [5]: 100%
